From patent publication US20230287391A1, “KRAB FUSION REPRESSORS AND METHODS AND COMPOSITIONS FOR REPRESSING GENE EXPRESSION” (THE GOVERNING COUNCIL OF THE UNIVERSITY OF TORONTO, priority 2020, published 2023)

Key:
Type in all cases: cell-based, human
[1] = system: 7×TetO array downstream of the polyadenylation site of a PGK1-EGFP-pA reporter in K562 cells; assay: PGK1-EGFP-pA reporter silencing by KRAB-dCas9 fusions tethered to a 7xTetO array in K562 cells; conditions: KRAB fused to N terminus of dCas9
Text: (§1) The human genome encodes over 350 KRAB domain proteins. It was postulated that KRAB domains would differ in their ability to silence gene expression when fused to dCas9. 57 human KRAB domains were individually fused to the N terminus of dCas9 and assayed for activity when recruited to one of two different genomically integrated reporter constructs. In one, they were recruited to a SV40 promoter driving EGFP expression in HEK293T cells, and in the other tethered to a 7×TetO array downstream of the polyadenylation site of a PGK1-EGFP-pA reporter in K562 cells (FIG. 1a). KRAB domains had strikingly different effects, spanning from almost complete silencing to no change at all (FIG. 1b,c and FIG. 5). The differences were not explained by expression levels of the dCas9 fusion (FIG. 3). […] KRAB was also fused to the C-terminus of dCas9 with similar results (see Example 5 and FIG. 3).
(§2) Cell culture. All HEK293T cells, including the SV40-EGFP reporter cell line (gift from Lei Stanley Qi lab, Stanford University), were maintained in Dulbecco's Modified Eagle's Medium (DMEM) with 10% fetal bovine serum (FBS), and 1% penicillin-streptomycin. Since the SV40-EGFP reporter cell line was originally generated with a random integration of lentivirus, a clonal line was made to ensure homogeneously high expression levels of EGFP and its targeting gRNA. […]

[2] = system: SV40 promoter driving EGFP expression in HEK293T cells; assay: SV40-EGFP reporter silencing by KRAB-dCas9 fusions in HEK293T cells; conditions: KRAB fused to N terminus of dCas9, flow cytometry 21 d after infection
Text: as §1, §2

HEK293T cells = assay: Genome-wide CRISPRi cell viability dropout screen (Dolcetto Set A); conditions: depletion of gRNAs for gold-standard essential vs non-essential genes after 21 days
Text: Finally, the performance of the three KRAB effector constructs was investigated in a large-scale unbiased screen. […] These cells were infected with the recently described Dolcetto Set A gRNA library targeting 18,901 genes with three gRNAs per gene and measured gRNA depletion after 21 days. The relative depletion of gRNAs targeting gold-standard essential genes and non-essential genes with each construct was compared with receiver operating characteristics (ROC) curves. […] It should be noted that the AUROC values reported here are somewhat lower than what has been reported for CRISPRi screens in other cell lines like K562 and […] but in line with the previously conducted screen in HEK293T cells (FIG. 2D, E). The lower efficiency may be due to the lower expression level of TRIM28 in HEK293T cells (FIG. 3).
CRISPRi. Viral titer for each cell line was determined on 15-cm dishes with a range of virus volumes (0, 50, 100, 150, 200, 250 and 500 μl). Validated HEK293T cells with heterogeneous expression of each repressor-dCas9 derivative was transduced at a dose resulting in ˜30% […]. Selection was done with 1 μg/ml puromycin 24 hrs post transduction resulting in complete selection within 48-72 hrs (TO). At ˜30% infection efficiency, enough cells were transduced to achieve an initial representation of >500-fold for each dCas9 variant. […]

[3] = system: SV40-EGFP reporter cell line; assay: ABA-induced recruitment of KRAB-PYL1 to ABI1-dCas9 at the SV40-EGFP reporter
Text: The difference in KRAB-domain activity might be explained either by their intrinsic potency or by their distinct temporal dynamics. […] The interaction between plant proteins […] and PYL1 is induced by abscisic acid (ABA) in a reversible manner (FIG. 1f). A clonal SV40-EGFP reporter cell line expressing ABI1—dCas9 and a gRNA targeting two sites on the SV40 promoter was generated. These cells were then infected with either ZIM3 or KOX1 KRAB domain fused to PYL1 and treated with ABA for 20 d (FIG. 1g, solid lines). […] When ABA was withdrawn after 9d, derepression occurred with similar dynamics with both KRAB domains (FIG. 1g, dashed lines). Thus, the difference in KRAB-domain potency is not due to slower dynamics of KOX1 KRAB induced repression. […] This is consistent with previous studies showing that KRAB domains can mediate silencing via both reversible and irreversible mechanisms.

Substance: KOX1 KRAB: KRAB domain from KOX1 (ZNF10) fused to dCas9, used in current implementations of CRISPRi
- repression of EGFP reporter [1]: not a particularly strong repressor
- repression of EGFP reporter [2]: not a particularly strong repressor
- repression of EGFP reporter ([2]; listed as KOX1): did not repress the reporter very robustly
- AUROC (gRNA-level) (HEK293T cells): 0.62
- AUROC (gene-level) (HEK293T cells): 0.66

Substance: ZIM3 KRAB-PYL1: ZIM3 KRAB domain fused to PYL1 (SEQ ID NO: 16), recruited to ABI1-dCas9 by abscisic acid
- level of EGFP repression ([3]; 100 μM ABA for 20 d, compared with KOX1 KRAB-PYL1): higher level of repression
- EGFP expression relative to the original levels ([3]; after 40-d silencing followed by ABA washout): 10%
